# Reference: patent US20140271573A1, “PHARMACO-CELLULAR THERAPEUTIC METHOD FOR THE TREATMENT OF MUSCULAR DYSTROPHIES” (PONTIFICIA UNIVERSIDAD CATÓLICA DE CHILE, priority 2013, published 2014)
# Assays:
# [1] = tested on: mdx mice; test: Satellite cell graft into tibialis anterior of andrographolide pre-treated mdx mice; format: in vivo, mouse
# Description: FIG. 8. Muscle stem cell therapy with satellite cells is improved by reducing the muscle fibrosis by the treatment with andrographolide. A) 3 months old mdx mice were subjected to an exercise protocol for 4 months to augment the extent of muscle fibrosis. During this period one group was treated with andrographolide or vehicle (i.p. injections 3 time per week, 6 animal per group). 1 week after the last drug administration (7 month old mice), 500 freshly isolated satellite cells (SC) purified from WT mice were transplanted in both tibialis anterior muscle of each mdx mouse. 4 weeks after the engraftment the number of fibers expressing dystrophin and collagen I were determined by immunofluorescence on cryosections. The images are representative of 2 experimental group with 6 mice per group. B) Quantification of the data obtained in A showing the number of myofibers expressing dystrophin per tibialis anterior muscle in each case. C) The number of satellite cells (PAX-7 positive nuclei) were determined on isolated single muscle fibers from extensor digitoriumlongus muscle (EDL) in each case as indicative of the endogenous SC survival.
# The isolation of single myofibers were prepared essentially as described (Kelly et al., 1995, Collins 2005), briefly extensor digitorium (EDL) and soleus muscles from 6 weeks old C57-BL10 mice were dissected and digested in 0.2% (w/v) collagenase type 1 (Sigma) in DMEM (Gibco) 4 mM L-glutathatmine (Sigma) and 1% penicillin and streptomycin solution (Sigma) for […] in a 37° C. water bath. After gentle muscle trituration only single and stretched myofibers were collected in DMEM. The myofibers were washed by serial transfers in 4 dishes (pre-coated with horse serum to prevent myofiber attachment) containing DMEM. The myofibers were finally collected in DMEM containing 10% FBS, 10% horse serum, 0.5% chick embryo extract and 5 ng/ml of FGF-2 (R&D) and cultured for 30 min in a 5% CO2 cell culture incubator.
# Satellite cells were separated from the myofibers by physical trituration using the method of Collins et al (2005). Briefly, the isolated intact fibers were suspended in 10 ml of complete medium and triturated with a 19 G needle mounted on a 1 ml syringe. The suspension was sequentially passed through a 70 um and 40 um cell sieve (Falcon) to remove debris. The satellite cell suspension was centrifuged for 15 min at 450 RCF. The pellet was resuspended in physiologic serum (NaCl 0.9%). An aliquot was stained with Hoechst 1 ug/ml and cholera toxin sub unit B conjugated to Alexa Fluor 488 (Invitrogen) 1 ug/ml for 5 minutes, washed with PBS and incubated with trypan blue. The double stained cells that exclude the trypan blue were counted in a hemocytometer as viable cells. The concentration of cells was adjusted to 25 cell/μl. […]
# [2] = tested on: mdx mice; test: Collagen and fibronectin in tibialis anterior muscle of mdx mice, immunofluorescence and western blot; format: in vivo, mouse; conditions: exercised mdx mice, 1 mg/kg i.p. 3 times per week for 3 months
# Description: FIG. 5. Andrographolide reduced skeletal muscle fibrosis in mdx mice. To augment the extent of muscle fibrosis, 3 months old mdx mice were subjected to an exercise protocol for 3 months. Along this period one group was treated with 1 mg/kg andrographolide or vehicle (i.p. injections 3 time per week, 6 animal per group). A) Detection of collagen I and fibronectin by indirect immunofluorescence analysis in cryosections of tibialis anterior muscles from WT, Vehicle-treated mdx and andrographolide-treated mdx mice. Bar corresponds to 200 μm. B) fibronectin (FN) protein levels were detected by western blot analysis in extracts obtained from tibialis Anterior muscles from WT, Vehicle-treated mdx and andrographolide-treated mdx mice. […] GAPDH protein levels are shown as loading control; molecular weight markers are shown in kDa.
# For immunoblot analyses, muscles were homogenized in 10 volume Tris-EDTA buffer with 1 mM PMSF as described previously (Morales et al., 2011). Briefly, proteins were determined in aliquots of muscle extracts using the bicinchoninic acid protein assay kit (Pierce, Ill.) using BSA as standard. Aliquots (50-100 μg) were subjected to SDS gel electrophoresis in 8% or 10% polyacrylamide gels, electrophoretically transferred onto PVDF membranes (Schleicher & Schuell) and probed with specific antibodies against fibronectin (Sigma-Aldrich, USA), collagen III (Rockland, USA and GAPDH (Millipore, USA), tubulin (Sigma-Aldrich, USA) and GAPDH (Sigma-Aldrich, USA). All immunoreactions were visualized by enhanced chemiluminescence kit (Pierce, USA). Densitometric analysis and quantification were performed using ImageJ software (NIH, USA) (Cabello-Verrugio et al., 2012).
# Control or mdx (12 weeks old) male mice of C57BL/10 ScSn strain were studied. The animals were kept at room temperature with a […] night-day cycle and fed with pellets and water ad libitum. Experimental exercise was performed for running the mice in a treadmill for three times per week, 30 minutes each time at 12 m/min during 3 or 4 months (De Luca et al., 2005; De Luca et al., 2003). […]
structure (smiles),measurement,setting,value
C=C1CC[C@@H]2[C@](C)(CO)[C@H](O)CC[C@@]2(C)[C@@H]1C/C=C1/C(=O)OC[C@H]1O [andrographolide],increase in number of dystrophin positive fibers compared to controls,"[1]; mdx mice pre-treated with andrographolide, 500 WT satellite cells grafted per tibialis anterior, one month after transplantation",3 times
same,collagen-I content after satellite cell transplantation,"[1]; mdx mice pre-treated with andrographolide, one month after transplantation, immunofluorescence",clear reduction
same,change in number of satellite cells present on isolated EDL myofibers,"[1]; same transplanted mdx mice, PAX-7 positive nuclei, endogenous satellite cells",no changes
same,mean satellite cells per EDL myofiber,"[1]; same transplanted mdx mice, no change between treated and untreated",12.5 satellite cells per EDL myofiber
same,"accumulation of collagen type I, immunofluorescence staining",[2]; tibialis anterior,strongly decrease
same,"accumulation of fibronectin, immunofluorescence staining",[2]; tibialis anterior,strongly decrease
same,fibronectin protein levels by western blot analysis,[2]; tibialis anterior extracts,decreased
